Results from US9868736B2, “Deubiquitinase inhibitors and methods for use of the same” (THE REGENTS OF THE UNIVERSITY OF MICHIGAN, priority 2013, dated 2018).
Entries after “also recorded” stand apart in the source; their conditions may differ.

Tests used:
[1] = biological target: Usp24 (Homo sapiens, UniProt Q9UPU5); assay: Usp24 inhibition
[2] = system: p53, pStat3, pERK, NOXA, PARP, Bid; assay: signalling and apoptosis markers in A375 cells; type: cell-based
From the text: (§1) Similar results were obtained in A375R Usp5 KD cells treated with a MEK inhibitor.

[3] = system: MM1.S tumor; assay: MM1.S tumor growth in NSG mice; type: in vivo, NOD/SCID/gamma-2 knockout mice (NSG)
Method: Ten million MM1.S tumor cells were injected into the dorsal region of twenty female NOD/SCID/gamma-2 knockout mice (NSG) weighing ˜20 grams each. After 3 weeks tumors became visible and measurable with calipers. Mice were separated into four groups of 5 mice each and IP injected with G9 dissolved in 55% dimethyl sulfoxide, 25% polyethylene glycol 300, 20% phosphate-buffered saline at dose levels of 0, 2.5, 5 and 10 mg/kg mouse body weight. Animals were injected once per day for 14 days and tumor growth (measured with calipers) and animal weight were monitored over the treatment interval. The resulting changes in tumor growth for each group are shown and represented as the average+/−standard error of the mean for each group. The p-values were calculated using GraphPad InStat. P-values lower than 0.05 are considered significant. […] Animal weight was not affected by G9 injection in any of the mice. […] Twenty female NSG mice were inoculated subcutaneously with 10 million MM1.S cells in Matrigel and cell culture media (1:1) in a total volume of 0.1 mL. When tumors were measurable with calibers (3 weeks post tumor cell injection), mice were divided into 4 groups of five mice each and treated with the dose of G9 indicated. Tumor growth (left) and animal weight (right) were recorded at the interval noted. The results represent the average+/−SD of 5 animals per data point. P-values <0.05 are considered significant and were calculated using GraphPad InStat.
A second animal study was conducted in NSG mice with mice receiving higher dose levels of G9. Tumor inoculation and compound administration were similar to those utilized in the lower dose study. However, 3 mice per treatment group were used in this study and additional G9 doses were tested for safety and efficacy. […] NSG mice were inoculated with MM1.S tumors as described in FIG. 7. When tumors were measurable with calipers, mice were placed into 5 groups of 3 mice each and treated with G9 at 0, 5, 10, 15 and 20 mg/kg for 12 days with daily injection. Tumor size (left) and animal weight (right) were recorded over the treatment interval. […] The result of G9 treatment is also depicted as tumor volume over time for each treatment group (FIG. 4—top). Tumors extracted from each of the three mice in each treatment group following the last injection were photographed and shown in FIG. 4 (bottom). […] Control and treated mouse tumor sizes are shown on the left. Bars from left to right in each treatment group represent tumor size after 0, 4, 6, 8 and 11 days of treatment. Each bar represents the average+/−S.D. of measurements made in 3 mice per group. The significance of change in tumor volume between treated and control mice was calculated using GraphPad InStat. P-values<0.05 are considered significant. On the bottom, tumors were extracted from control and treated mice and photographed. Each row illustrates tumor from each of the three mice in the treatment group noted on the top of each row.

[4] = system: A375 tumors; assay: A375 melanoma tumor growth in NSG mice; type: in vivo
Method: G9 suppresses Usp9x activity in A375 melanoma cells. The effect of G9 on the growth of A375 tumors in NSG mice was examined. Two million A375 cells in Matrigel: cell culture media (1:1) in 0.1 mL were injected subcutaneously in the dorsal region of 9 female NSG mice. After tumor growth to a measurable level (2 weeks post inoculation) animals were separated into 3 groups and mice received 0, 7.5 or 15 mg/kg G9 (prepared as described above) daily by IP injection for 8 days. Tumor volume (left) and animal weight (right) were measured every other day throughout the treatment interval and are reported in FIG. 6. […] Three animals per treatment group were evaluated in this study. Each data point represents the average+/−S.D. of measurements made in three mice. P-values were calculated using GraphPad Instat. P-values<0.05 are considered significant.
A375 tumors grown as subcutaneous implants in NSG mice were separated into three groups and received once daily ip injections with vehicle control (PEG300/DMSO) or G9 at doses of 7.5 or 15 mg/kg. Tumor growth, animal weight, behavior and mobility were monitored during treatment.

[5] = system: vemurafenib sensitive and resistant A375 melanoma cells; assay: in vitro anti-tumor efficacy in A375 melanoma cells; type: cell-based; details: Homo sapiens, A-375
From the text: as §1

[6] = plasma level in mice after IV, PO or IP administration (LC/MS); type: in vivo, Balb/c mice; details: for concentration at 0.5 h / concentration at 2 h / concentration at 4 h / concentration at 7 h / AUC(0-t) / half-life: Balb/c, mouse, plasma
Method: To determine whether G9 or 067 had anti-tumor activity in animals, we first assessed their properties in mice when introduced intravenously (IV) or by oral gavage (PO). G9 or 067 was administered once to two mice per group at the indicated dosage level and route (IV or PO) and plasma was collected at the time point indicated after administration. Compound concentration in the plasma was measured by high performance liquid chromatography coupled with mass spectroscopy detection (LC/MS).
Balb/c mice were treated with either 067 or G9 dissolved in dimethyl sulfoxide: polyethylene glycol 300 (1:1) and administered as indicated. The level of each compound in the plasma of each mouse at the time point indicated is shown in the line graph. The area under the curve (AUC) was calculated and tabulated below each line graph. […] The level of each compound in the plasma of each mouse at the time point indicated is shown Table 2. Several pharmacokinetic parameters were also calculated. […] The half-life of G9 was similar to 067 when administered by IP injection (30-60 min). Based on these assessments, G9 was further evaluated for anti-tumor activity in mice.

[7] = vemurafenib sensitive and resistant A375 cells
[8] = 7.5 or 15 mg/kg daily IP for 8 days
[9] = intravenous, 10 mg/kg, IV1 10 mg/kg
[10] = intravenous, 10 mg/kg, IV2 10 mg/kg

Usp24, sequence (Q9UPU5 whole entry): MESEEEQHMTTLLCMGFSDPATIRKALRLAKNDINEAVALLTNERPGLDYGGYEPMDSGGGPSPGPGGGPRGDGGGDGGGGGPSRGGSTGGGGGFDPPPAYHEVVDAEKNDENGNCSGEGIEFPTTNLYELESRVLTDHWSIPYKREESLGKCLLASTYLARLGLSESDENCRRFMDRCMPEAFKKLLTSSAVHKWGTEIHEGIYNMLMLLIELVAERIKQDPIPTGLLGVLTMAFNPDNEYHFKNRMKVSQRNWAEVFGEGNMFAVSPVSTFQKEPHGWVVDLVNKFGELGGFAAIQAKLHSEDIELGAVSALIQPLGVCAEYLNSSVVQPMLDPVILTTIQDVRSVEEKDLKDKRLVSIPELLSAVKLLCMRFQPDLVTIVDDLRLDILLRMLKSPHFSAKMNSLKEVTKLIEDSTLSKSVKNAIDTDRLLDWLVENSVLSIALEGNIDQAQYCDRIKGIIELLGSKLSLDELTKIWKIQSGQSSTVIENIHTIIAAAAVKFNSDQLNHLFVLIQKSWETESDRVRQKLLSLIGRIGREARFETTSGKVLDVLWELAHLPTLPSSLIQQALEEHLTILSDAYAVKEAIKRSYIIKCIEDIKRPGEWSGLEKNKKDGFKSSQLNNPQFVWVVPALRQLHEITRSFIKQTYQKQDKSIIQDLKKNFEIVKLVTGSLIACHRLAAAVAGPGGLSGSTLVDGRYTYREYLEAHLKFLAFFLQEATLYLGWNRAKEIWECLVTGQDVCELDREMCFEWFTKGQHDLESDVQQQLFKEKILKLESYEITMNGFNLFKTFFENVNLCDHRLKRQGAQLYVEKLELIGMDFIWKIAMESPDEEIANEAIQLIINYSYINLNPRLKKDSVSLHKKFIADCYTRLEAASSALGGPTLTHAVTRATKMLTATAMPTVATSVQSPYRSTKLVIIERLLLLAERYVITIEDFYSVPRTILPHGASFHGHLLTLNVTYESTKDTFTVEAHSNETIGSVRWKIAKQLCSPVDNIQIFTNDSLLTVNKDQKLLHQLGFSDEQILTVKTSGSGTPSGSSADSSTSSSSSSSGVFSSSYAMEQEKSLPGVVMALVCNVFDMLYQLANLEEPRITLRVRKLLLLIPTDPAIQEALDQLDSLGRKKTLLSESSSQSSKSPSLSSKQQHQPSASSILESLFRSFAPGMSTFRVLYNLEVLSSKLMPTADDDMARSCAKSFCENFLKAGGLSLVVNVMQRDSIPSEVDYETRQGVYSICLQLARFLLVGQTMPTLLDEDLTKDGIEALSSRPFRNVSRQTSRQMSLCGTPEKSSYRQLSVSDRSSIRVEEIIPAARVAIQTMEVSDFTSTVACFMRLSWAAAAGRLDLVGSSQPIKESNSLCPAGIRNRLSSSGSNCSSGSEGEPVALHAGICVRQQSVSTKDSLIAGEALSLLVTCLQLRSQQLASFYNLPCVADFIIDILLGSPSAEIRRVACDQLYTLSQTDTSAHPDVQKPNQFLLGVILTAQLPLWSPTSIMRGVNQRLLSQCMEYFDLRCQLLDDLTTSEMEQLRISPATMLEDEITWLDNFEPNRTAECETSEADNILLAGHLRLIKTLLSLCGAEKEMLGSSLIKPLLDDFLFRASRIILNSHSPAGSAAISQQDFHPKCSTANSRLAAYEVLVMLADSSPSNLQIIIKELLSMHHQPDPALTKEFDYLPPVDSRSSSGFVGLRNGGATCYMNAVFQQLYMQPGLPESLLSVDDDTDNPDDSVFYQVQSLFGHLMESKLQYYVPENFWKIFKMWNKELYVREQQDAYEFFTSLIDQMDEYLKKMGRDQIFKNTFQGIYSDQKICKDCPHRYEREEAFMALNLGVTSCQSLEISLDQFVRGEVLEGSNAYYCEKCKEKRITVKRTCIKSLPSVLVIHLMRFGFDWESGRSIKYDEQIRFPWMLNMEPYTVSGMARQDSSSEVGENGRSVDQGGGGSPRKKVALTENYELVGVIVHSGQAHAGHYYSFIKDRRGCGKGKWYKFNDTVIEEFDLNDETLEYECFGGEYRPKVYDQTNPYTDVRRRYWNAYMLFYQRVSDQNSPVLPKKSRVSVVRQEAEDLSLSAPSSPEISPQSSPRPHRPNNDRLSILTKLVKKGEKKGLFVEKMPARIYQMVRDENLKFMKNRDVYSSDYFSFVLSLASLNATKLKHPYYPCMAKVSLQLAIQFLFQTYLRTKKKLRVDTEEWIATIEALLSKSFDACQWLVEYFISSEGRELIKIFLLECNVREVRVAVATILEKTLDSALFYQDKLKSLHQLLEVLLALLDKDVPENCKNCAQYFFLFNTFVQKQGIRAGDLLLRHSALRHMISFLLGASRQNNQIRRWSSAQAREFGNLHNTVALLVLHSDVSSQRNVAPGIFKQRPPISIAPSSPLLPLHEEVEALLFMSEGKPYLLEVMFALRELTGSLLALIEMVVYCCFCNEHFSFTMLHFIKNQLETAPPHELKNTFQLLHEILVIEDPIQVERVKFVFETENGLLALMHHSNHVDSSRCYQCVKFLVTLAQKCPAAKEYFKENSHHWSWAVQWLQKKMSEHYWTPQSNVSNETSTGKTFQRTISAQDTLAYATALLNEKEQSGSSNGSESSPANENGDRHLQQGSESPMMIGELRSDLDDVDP

CCCC(NC(=O)/C(C#N)=C/c1nc(Cl)ccc1Cl)c1ccc(OCCN2CCOCC2)cc1 (stereo not shown) [Compound G9, (E)-2-Cyano-3-(3,6-dichloropyridin-2-yl)-N-(1-(4-(2-morpholinoethoxy)phenyl)butyl)acrylamide]
Usp24 inhibition [1]: inhibited the DUB Usp24
pERK, pStat3 and NOXA levels ([2]; A375R cells): reduced pERK, pStat3 and elevated NOXA levels
PARP and Bid cleavage ([2]; A375R cells, combined with vemurafenib or 5FU): induced PARP and Bid cleavage
p53 levels [2, 7]: increased p53 levels
pStat3 inhibitory activity [2, 7]: retained pStat3 inhibitory activity
animal weight ([3]; IP once per day for 14 days, 2.5, 5 and 10 mg/kg): not affected
MM1.S tumor growth ([3]; IP once per day for 14 days, 2.5, 5 and 10 mg/kg (all doses)): reduced MM1.S tumor growth
MM1.S tumor growth compared to controls ([3]; IP once per day for 14 days, 5 and 10 mg/kg): significant reduction in MM1.S tumor growth
MM1.S tumor growth ([3]; daily injection for 12 days, 5, 10, 15 and 20 mg/kg (all doses)): suppressed MM1.S tumor growth
animal weight ([3]; daily injection for 12 days, 10-20 mg/kg): some weight loss
MM1.S tumor size ([3]; daily injection for 12 days, 15 and 20 mg/kg): tumor regression
side effects: behavior and mobility ([4]; 7.5 or 15 mg/kg daily IP): did not observe changes in behavior or mobility; also recorded: did not have any notable side effects
A375 tumor growth [4, 8]: suppressed A375 tumor growth; also recorded: completely suppressed tumor growth; also recorded: reduced tumor growth
animal weight [4, 8]: modest impact on animal weight; also recorded: not significantly different
IC50 [5]: 1 µM
concentration at 0.5 h [6, 9]: 1.88 µg/mL
concentration at 2 h [6, 9]: 0.395 µg/mL
concentration at 4 h [6, 9]: 0.126 µg/mL
concentration at 7 h [6, 9]: 0.0386 µg/mL
concentration at 0.5 h [6, 10]: 1.22 µg/mL
concentration at 2 h [6, 10]: 0.52 µg/mL
concentration at 4 h [6, 10]: 0.289 µg/mL
concentration at 7 h [6, 10]: 0.208 µg/mL
AUC(0-t) ([6]; iv, 10 mg/kg, IV1 10 mg/kg): 3.73 µg·h/mL
AUC(0-t) ([6]; iv, 10 mg/kg, IV2 10 mg/kg): 3.57 µg·h/mL
concentration at 0.5 h ([6]; oral, 30 mg/kg, PO1 30 mg/kg): 0.0608 µg/mL
concentration at 2 h ([6]; oral, 30 mg/kg, PO1 30 mg/kg): 0.0358 µg/mL
concentration at 4 h ([6]; oral, 30 mg/kg, PO1 30 mg/kg): 0.0445 µg/mL
concentration at 7 h ([6]; oral, 30 mg/kg, PO1 30 mg/kg): 0.0376 µg/mL
concentration at 0.5 h ([6]; oral, 30 mg/kg, PO2 30 mg/kg): 0.0787 µg/mL
concentration at 2 h ([6]; oral, 30 mg/kg, PO2 30 mg/kg): 0.059 µg/mL
concentration at 4 h ([6]; oral, 30 mg/kg, PO2 30 mg/kg): 0.0571 µg/mL
concentration at 7 h ([6]; oral, 30 mg/kg, PO2 30 mg/kg): 0.0161 µg/mL
AUC(0-t) ([6]; po, 30 mg/kg, PO1 30 mg/kg): 0.291 µg·h/mL
AUC(0-t) ([6]; po, 30 mg/kg, PO2 30 mg/kg): 0.349 µg·h/mL
half-life ([6]; mice, IP injection): 0.5 to 1 h
half-life ([6]; mice, IV or PO study of Table 2): 1.5 to 2 h
bio-availability following IV administration ([6]; mice, IV): bio-available following IV administration
peak plasma levels, G9 compared with 067 ([6]; mice, IV): higher peak levels
oral bio-availability ([6]; mice, PO): poor oral bio-availability
